Consider three compounds from ChEMBL document CHEMBL5696442, “Discovery of type II inhibitors of TGFβ-activated kinase 1 (TAK1) and mitogen-activated protein kinase kinase kinase kinase 2 (MAP4K2)” (J Med Chem, 2015).

Active and inactive are the calls of the source. No cut-off for these calls is given here.

Assay [1] has as its target Ribosomal protein S6 kinase beta-1 (Homo sapiens) (UniProt P23443). As to the kind of experiment: Inhibition of S6K1 (unknown origin) at 1 uM by Ambit Kinomescan binding assay relative to control.
Assay [2] addresses T1, Scaffold protein ILK (Homo sapiens) (UniProt Q13418).
T1 sequence (whole entry): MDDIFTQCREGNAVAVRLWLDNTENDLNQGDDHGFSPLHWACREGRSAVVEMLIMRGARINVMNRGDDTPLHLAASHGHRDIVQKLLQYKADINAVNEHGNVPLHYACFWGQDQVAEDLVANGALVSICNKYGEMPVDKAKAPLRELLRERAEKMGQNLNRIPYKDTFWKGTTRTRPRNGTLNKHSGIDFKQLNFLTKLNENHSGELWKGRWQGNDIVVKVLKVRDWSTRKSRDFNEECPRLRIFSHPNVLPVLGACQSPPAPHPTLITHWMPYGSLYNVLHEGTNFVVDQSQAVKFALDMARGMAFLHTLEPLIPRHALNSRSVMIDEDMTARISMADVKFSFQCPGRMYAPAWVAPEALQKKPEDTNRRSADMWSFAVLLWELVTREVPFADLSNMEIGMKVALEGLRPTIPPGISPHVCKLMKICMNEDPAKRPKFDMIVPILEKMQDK
Nature of the assay: Inhibition of ILK Protein Kinase Domain in human A-375 cells at 0.05 uM by KiNativ Profiling analysis relative to control. The class given is cell-based.

The target of assay [3] is Megakaryocyte-associated tyrosine-protein kinase (Homo sapiens) (UniProt P42679). Nature of the assay: Inhibition of CTK (unknown origin) at 1 uM by Ambit Kinomescan binding assay relative to control; values are per cent of control.
Megakaryocyte-associated tyrosine-protein kinase (Homo sapiens), sequence (P42679 whole entry): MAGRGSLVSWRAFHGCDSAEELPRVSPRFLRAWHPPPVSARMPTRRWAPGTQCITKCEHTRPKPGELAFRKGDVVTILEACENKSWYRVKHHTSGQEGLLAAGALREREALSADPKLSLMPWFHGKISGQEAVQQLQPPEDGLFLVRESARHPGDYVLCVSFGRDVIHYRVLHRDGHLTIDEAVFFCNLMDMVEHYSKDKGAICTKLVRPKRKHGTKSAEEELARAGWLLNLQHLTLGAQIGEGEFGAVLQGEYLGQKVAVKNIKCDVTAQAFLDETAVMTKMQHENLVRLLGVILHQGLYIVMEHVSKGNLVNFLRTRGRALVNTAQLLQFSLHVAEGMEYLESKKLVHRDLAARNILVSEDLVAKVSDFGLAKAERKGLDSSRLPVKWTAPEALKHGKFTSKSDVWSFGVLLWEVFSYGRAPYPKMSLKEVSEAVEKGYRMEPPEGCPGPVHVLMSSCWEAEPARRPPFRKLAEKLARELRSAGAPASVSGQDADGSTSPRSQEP
Assay [4] deals with Cyclin-dependent kinase 17 (Homo sapiens) (UniProt Q00537). As to the kind of experiment: Inhibition of PCTAIRE2 K2 labeling site in human Huh-7 cells at 1 uM by KiNativ Profiling analysis relative to control. The class given is cell-based.
Cyclin-dependent kinase 17 (Homo sapiens), sequence (Q00537 whole entry, looked up): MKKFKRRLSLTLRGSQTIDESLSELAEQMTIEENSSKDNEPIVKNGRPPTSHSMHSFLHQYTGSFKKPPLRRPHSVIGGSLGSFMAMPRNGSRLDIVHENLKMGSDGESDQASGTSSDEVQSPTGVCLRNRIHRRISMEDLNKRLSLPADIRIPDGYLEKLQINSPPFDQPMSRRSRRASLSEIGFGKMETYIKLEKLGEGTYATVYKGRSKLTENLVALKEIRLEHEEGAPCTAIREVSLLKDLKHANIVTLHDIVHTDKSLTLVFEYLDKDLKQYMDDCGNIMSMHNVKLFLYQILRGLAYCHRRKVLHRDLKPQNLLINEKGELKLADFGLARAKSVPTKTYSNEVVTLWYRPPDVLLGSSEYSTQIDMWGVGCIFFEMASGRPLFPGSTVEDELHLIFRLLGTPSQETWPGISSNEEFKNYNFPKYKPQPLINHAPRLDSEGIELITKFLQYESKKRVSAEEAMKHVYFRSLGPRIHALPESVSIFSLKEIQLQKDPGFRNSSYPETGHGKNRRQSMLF
Assay [5] can be described thus: Inhibition of PKD1/2 K2 labeling site in human Huh-7 cells at 1 uM by KiNativ Profiling analysis relative to control. The following applies: condition cancer.
The target of assay [6] is T2, Serine/threonine-protein kinase D1 (Homo sapiens) (UniProt Q15139).
T2 sequence (whole entry): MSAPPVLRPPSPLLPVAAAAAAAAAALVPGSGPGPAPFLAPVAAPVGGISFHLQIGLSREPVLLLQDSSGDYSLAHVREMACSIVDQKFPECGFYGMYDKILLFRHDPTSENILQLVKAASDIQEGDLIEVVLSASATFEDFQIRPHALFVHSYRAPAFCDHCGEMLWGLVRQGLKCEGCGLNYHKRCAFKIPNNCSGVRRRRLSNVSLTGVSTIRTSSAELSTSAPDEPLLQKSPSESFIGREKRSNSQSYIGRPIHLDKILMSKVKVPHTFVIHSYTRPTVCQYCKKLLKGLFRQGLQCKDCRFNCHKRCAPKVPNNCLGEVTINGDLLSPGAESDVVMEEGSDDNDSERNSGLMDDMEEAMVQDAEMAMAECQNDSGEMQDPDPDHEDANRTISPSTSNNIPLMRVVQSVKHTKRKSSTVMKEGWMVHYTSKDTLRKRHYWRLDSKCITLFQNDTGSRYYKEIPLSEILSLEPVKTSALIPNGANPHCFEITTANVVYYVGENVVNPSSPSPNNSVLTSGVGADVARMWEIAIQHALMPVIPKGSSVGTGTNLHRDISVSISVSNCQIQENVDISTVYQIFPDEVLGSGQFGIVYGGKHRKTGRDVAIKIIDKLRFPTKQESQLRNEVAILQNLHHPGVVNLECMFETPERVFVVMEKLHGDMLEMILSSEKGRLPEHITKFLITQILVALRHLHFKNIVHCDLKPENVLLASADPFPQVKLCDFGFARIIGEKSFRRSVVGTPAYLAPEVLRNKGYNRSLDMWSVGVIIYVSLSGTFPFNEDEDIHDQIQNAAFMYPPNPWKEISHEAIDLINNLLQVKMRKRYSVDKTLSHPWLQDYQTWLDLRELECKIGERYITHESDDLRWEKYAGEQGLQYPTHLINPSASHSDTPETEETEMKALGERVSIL
Nature of the assay: Inhibition of PRKD1 (unknown origin) at 10 uM by Ambit Kinomescan binding assay.

For assay [7], the target named is Cyclin-dependent kinase 2 (Homo sapiens) (UniProt P24941). Nature of the assay: Inhibition of CDK2 K2 labeling site in human Huh-7 cells at 1 uM by KiNativ Profiling analysis relative to control. The class given is cell-based.
Assay [8] concerns the target T3, Serine/threonine-protein kinase LATS2 (Homo sapiens) (UniProt Q9NRM7).
T3 sequence (whole entry): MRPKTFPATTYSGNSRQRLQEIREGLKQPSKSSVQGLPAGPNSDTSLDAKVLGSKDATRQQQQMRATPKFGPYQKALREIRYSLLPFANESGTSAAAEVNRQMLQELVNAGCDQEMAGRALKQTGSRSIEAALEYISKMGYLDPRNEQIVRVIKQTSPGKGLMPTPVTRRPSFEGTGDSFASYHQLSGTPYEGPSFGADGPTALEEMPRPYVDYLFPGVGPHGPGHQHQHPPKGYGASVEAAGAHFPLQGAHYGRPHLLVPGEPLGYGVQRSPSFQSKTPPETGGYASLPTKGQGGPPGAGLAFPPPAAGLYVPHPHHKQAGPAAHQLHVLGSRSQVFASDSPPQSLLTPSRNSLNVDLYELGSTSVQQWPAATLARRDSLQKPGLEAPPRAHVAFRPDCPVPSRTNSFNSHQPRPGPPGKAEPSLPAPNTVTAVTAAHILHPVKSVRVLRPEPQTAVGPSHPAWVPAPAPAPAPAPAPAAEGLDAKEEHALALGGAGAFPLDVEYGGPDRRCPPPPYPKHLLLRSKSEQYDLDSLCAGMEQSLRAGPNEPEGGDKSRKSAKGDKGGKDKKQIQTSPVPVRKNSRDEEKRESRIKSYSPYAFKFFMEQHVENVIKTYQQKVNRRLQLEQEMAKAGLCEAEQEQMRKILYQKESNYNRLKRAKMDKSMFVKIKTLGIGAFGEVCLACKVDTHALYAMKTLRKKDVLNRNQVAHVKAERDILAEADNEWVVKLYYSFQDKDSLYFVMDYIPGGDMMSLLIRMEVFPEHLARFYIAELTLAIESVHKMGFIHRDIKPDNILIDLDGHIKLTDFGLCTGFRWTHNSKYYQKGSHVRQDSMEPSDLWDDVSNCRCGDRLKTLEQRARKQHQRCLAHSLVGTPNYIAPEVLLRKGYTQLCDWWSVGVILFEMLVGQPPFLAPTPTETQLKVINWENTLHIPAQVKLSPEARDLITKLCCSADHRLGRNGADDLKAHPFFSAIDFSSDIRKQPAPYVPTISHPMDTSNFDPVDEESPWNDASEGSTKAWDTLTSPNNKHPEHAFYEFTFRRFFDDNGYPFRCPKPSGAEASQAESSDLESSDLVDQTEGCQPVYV
Nature of the assay: Inhibition of LATS2 Lys1 labeling site in human Huh-7 cell lysate at 1 uM by KiNativ Profiling analysis relative to control. The class given is subcellular.

Ribosomal protein S6 kinase beta-1 (Homo sapiens), sequence (P23443 whole entry, looked up): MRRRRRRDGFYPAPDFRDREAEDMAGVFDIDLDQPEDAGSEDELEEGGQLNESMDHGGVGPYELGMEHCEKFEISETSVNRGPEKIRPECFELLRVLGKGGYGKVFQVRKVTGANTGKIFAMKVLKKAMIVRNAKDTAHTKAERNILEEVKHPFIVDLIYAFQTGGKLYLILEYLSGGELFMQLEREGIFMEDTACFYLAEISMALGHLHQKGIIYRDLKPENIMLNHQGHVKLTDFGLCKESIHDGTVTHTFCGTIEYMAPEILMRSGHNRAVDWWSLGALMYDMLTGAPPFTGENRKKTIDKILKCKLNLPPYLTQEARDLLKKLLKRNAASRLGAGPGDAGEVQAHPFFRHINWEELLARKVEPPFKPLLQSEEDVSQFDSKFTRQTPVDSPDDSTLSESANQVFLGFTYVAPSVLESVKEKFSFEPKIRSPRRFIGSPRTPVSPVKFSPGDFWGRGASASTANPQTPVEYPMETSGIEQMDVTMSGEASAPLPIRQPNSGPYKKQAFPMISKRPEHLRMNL

The term inhibition denotes the drop in the measured response relative to a control, in per cent. As a reminder, the residual activity is the activity still measured, relative to the control. Take `CCN1CCN(Cc2ccc(NC(=O)c3ccc(C)c(/C=C/c4cnc5[nH]ccc5c4OC)c3)cc2C(F)(F)F)CC1`: the inhibition in assay [1] was 46%; in assay [2] it was -9.6%. This compound had a residual activity in assay [3] of 60%.

Take `CCN1CCN(Cc2ccc(NC(=O)c3ccc(C)c(Oc4ccnc5[nH]ccc45)c3)cc2C(F)(F)F)CC1`: the figures for the inhibition in assay [4] and in assay [7] were -3.4% and 5%, respectively. In assay [5], the inhibition at 1 µM is -9.2%. In assay [6], the inhibition result was “inactive”.

In the case of `CNc1cc(Oc2cc(C(=O)Nc3cc(N4CCN(C)CC4)cc(C(F)(F)F)c3)ccc2C)ncn1`, the inhibition in assay [8] is -3.8%.
